Measurements: patent publication US8404708B2, “Dual NK1/NK3 receptor antagonists” (Hoffmann-La Roche Inc., priority 2004, dated 2013)
pKi: −log10 of the molar value. Read-outs that look alike come from different tables or passages of the source.

Tests used:
human NK1 receptor = human NK1 receptor (Homo sapiens, UniProt P25103); experiment: NK1 receptor binding, [3H]substance P displacement, CHO cell membranes; conditions: for Ki: first value of the cell NK1/NK3, read-out: pKi NK1 (converted); for pKi: first value of the cell pKi NK1/NK3, human NK1 receptor, [3H]substance P
[1] = target: T1, Recombinant human NK3 (hNK3) receptor (Homo sapiens, UniProt P29371); experiment: NK3 receptor binding, [3H]SR142801 displacement, membrane preparations; conditions: for Ki: second value of the cell NK1/NK3, read-out: pKi NK3 (converted); for pKi: second value of the cell pKi NK1/NK3, hNK3 receptor, [3H]SR142801
T1 construct: expressed in transfected cells
T1 sequence (P29371 1-465): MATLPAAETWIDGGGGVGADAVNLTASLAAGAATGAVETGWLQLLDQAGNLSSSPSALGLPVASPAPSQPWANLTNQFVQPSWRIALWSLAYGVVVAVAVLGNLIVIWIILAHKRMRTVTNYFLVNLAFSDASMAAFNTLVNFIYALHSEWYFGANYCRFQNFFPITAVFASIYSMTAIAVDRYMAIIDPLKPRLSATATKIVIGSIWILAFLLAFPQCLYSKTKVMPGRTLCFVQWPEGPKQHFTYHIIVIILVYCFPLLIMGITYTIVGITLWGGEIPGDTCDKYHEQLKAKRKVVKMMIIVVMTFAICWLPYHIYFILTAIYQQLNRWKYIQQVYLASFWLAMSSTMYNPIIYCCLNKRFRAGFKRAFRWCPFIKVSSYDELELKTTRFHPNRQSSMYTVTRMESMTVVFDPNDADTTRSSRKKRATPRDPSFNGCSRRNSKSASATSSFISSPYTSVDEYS
In short: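 Room-temperature, 90-min filtration binding assay using about 2.5 μg recombinant receptor membranes per well; separation on polyethyleneimine-treated glass-fibre (GF/C) filters and liquid scintillation read-out, with 10 μM SB222200 for nonspecific binding.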

human NK1 receptor, sequence (P25103 whole entry): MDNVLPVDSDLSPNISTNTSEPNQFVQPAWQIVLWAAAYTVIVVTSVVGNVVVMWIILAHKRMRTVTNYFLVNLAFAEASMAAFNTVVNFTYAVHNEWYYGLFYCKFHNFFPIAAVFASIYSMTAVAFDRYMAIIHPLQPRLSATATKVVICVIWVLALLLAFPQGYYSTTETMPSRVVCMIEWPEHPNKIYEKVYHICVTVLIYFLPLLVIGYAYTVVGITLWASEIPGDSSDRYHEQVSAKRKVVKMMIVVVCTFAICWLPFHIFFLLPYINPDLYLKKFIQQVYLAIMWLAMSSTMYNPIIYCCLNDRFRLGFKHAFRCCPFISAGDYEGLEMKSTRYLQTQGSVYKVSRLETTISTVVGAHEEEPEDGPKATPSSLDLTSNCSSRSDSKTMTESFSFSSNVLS

Structure (SMILES) | Ki (human NK1 receptor) [nM] | Ki [1] [nM] | pKi (human NK1 receptor) | pKi [1]
CN(C(=O)C(C)(C)c1cc(C(F)(F)F)cc(C(F)(F)F)c1)c1cnc(N2C[C@@H](O)C[C@H]2CO)cc1-c1ccccc1Br [Example 246, (2S,4S)-2-(3,5-Bis-trifluoromethyl-phenyl)-N-[4-(2-bromo-phenyl)-6-(4-hydroxy-2-hydroxymethyl-pyrrolidin-1-yl)-pyridin-3-yl]-N-methyl-isobutyramide] | 1.91 | 1.48 |  | 
Cc1ncccc1-c1cc(N2CCC[C@H]2CO)ncc1N(C)C(=O)C(C)(C)c1cc(C(F)(F)F)cc(C(F)(F)F)c1 [Example 290, (S)-2-(3,5-Bis-trifluoromethyl-phenyl)-N-[6′-(2-hydroxymethyl-pyrrolidin-1-yl)-2-methyl-[3,4′]bipyridinyl-3′-yl]-N-methyl-isobutyramide] | 1.45 | 1.78 |  | 
Cc1ccccc1-c1cc(N2CC(F)(F)C[C@H]2CO)ncc1N(C)C(=O)C(C)(C)c1cc(C(F)(F)F)cc(C(F)(F)F)c1 [Example 299, (S)-2-(3,5-Bis-trifluoromethyl-phenyl)-N-[6-(4,4-difluoro-2-hydroxymethyl-pyrrolidin-1-yl)-4-o-tolyl-pyridin-3-yl]-N-methyl-isobutyramide] | 2.57 | 1.07 |  | 
Cc1ccccc1-c1cc(N(CCO)CCO)ncc1N(C)C(=O)C(C)(C)c1cc(C(F)(F)F)cc(C(F)(F)F)c1 [Example 83, N-{6-[Bis-(2-hydroxy-ethyl)-amino]-4-o-tolyl-pyridin-3-yl}-2-(3,5-bis-trifluoromethyl-phenyl)-N-methyl-isobutyramide] |  |  | 8.93 | 8.96
Cc1ccc(F)cc1-c1cc(N2CC[C@H](O)[C@H]2CO)ncc1N(C)C(=O)C(C)(C)c1cc(C(F)(F)F)cc(C(F)(F)F)c1 [Example 276, (2R,3S)-2-(3,5-Bis-trifluoromethyl-phenyl)-N-[4-(5-fluoro-2-methyl-phenyl)-6-(3-hydroxy-2-hydroxymethyl-pyrrolidin-1-yl)-pyridin-3-yl]-N-methyl-isobutyramide] | 1.45 | 1.38 |  | 
Cc1cc(F)ccc1-c1cc(N2C[C@H](O)C[C@H]2CO)ncc1N(C)C(=O)C(C)(C)c1cc(Cl)cc(Cl)c1 [Example 23, (2S,4R)-2-(3,5-Dichloro-phenyl)-N-[4-(4-fluoro-2-methyl-phenyl)-6-(4-hydroxy-2-hydroxymethyl-pyrrolidin-1-yl)-pyridin-3-yl]-N-methyl-isobutyramide] |  |  | 9.05 | 8.80
CN(C(=O)C(C)(C)c1cc(C(F)(F)F)cc(C(F)(F)F)c1)c1cnc(N2CCN(C(=O)C3CC3)CC2)cc1-c1ccccc1Cl [Example 62, 2-(3,5-Bis-trifluoromethyl-phenyl)-N-[4-(2-chloro-phenyl)-6-(4-cyclopropanecarbonyl-piperazin-1-yl)-pyridin-3-yl]-N-methyl-isobutyramide] |  |  | 8.99 | 8.18
CN(C(=O)C(C)(C)c1cc(C(F)(F)F)cc(C(F)(F)F)c1)c1cnc(N2CC[C@H](O)[C@@H](CO)C2)cc1-c1ccccc1Cl (racemic) [Example 193, (3RS,4SR)-2-(3,5-Bis-trifluoromethyl-phenyl)-N-[4′-(2-chloro-phenyl)-4-hydroxy-3-hydroxymethyl-3,4,5,6-tetrahydro-2H-[1,2′]bipyridinyl-5′-yl]-N-methyl-isobutyramide] |  |  | 8.84 | 7.92
CN(C(=O)C(C)(C)c1cc(C(F)(F)F)cc(C(F)(F)F)c1)c1cnc(N2CCC(NS(C)(=O)=O)CC2)cc1-c1ccccc1Cl [Example 113, 2-(3,5-Bis-trifluoromethyl-phenyl)-N-[4′-(2-chloro-phenyl)-4-methanesulfonylamino-3,4,5,6-tetrahydro-2H-[1,2′]bipyridinyl-5′-yl]-N-methyl-isobutyramide] |  |  | 8.24 | 8.46
CN(C(=O)C(C)(C)c1cc(C(F)(F)F)cc(C(F)(F)F)c1)c1cnc(N2C[C@@H](O)C[C@H]2CO)cc1-c1ncccc1Cl [Example 256, (2S,4S)-2-(3,5-Bis-trifluoromethyl-phenyl)-N-[3-chloro-6′-(4-hydroxy-2-hydroxymethyl-pyrrolidin-1-yl)-[2,4′]bipyridinyl-3′-yl]-N-methyl-isobutyramide] | 2.4 | 20 |  | 
C[C@H](O)CNc1cc(-c2ccc(Cl)cc2Cl)c(N(C)C(=O)C(C)(C)c2cc(C(F)(F)F)cc(C(F)(F)F)c2)cn1 [Example 71, (S)-2-(3,5-Bis-trifluoromethyl-phenyl)-N-[4-(2,4-dichloro-phenyl)-6-(2-hydroxy-propylamino)-pyridin-3-yl]-N-methyl-isobutyramide] |  |  | 8.69 | 8.04
Cc1ccc(-c2cc(N3CC[C@H](O)[C@H]3CO)ncc2N(C)C(=O)C(C)(C)c2cc(C(F)(F)F)cc(C(F)(F)F)c2)cc1 [Example 267, (2R,3S)-2-(3,5-Bis-trifluoromethyl-phenyl)-N-[6-(3-hydroxy-2-hydroxymethyl-pyrrolidin-1-yl)-4-p-tolyl-pyridin-3-yl]-N-methyl-isobutyramide] | 3.63 | 28.8 |  | 
Cc1cc(F)ccc1-c1cc(N2C[C@H](O)C[C@@H]2CO)ncc1N(C)C(=O)C(C)(C)c1cc(C(F)(F)F)cc(C(F)(F)F)c1 [Example 258, (2R,4R)-2-(3,5-Bis-trifluoromethyl-phenyl)-N-[4-(4-fluoro-2-methyl-phenyl)-6-(4-hydroxy-2-hydroxymethyl-pyrrolidin-1-yl)-pyridin-3-yl]-N-methyl-isobutyramide] | 2 | 10 |  | 
CCN(C(C)=O)[C@@H]1CCN(c2cc(-c3ccc(F)cc3C)c(N(C)C(=O)C(C)(C)c3cc(C(F)(F)F)cc(C(F)(F)F)c3)cn2)C1 [Example 102, (R)-N-[6-[3-(Acetyl-ethyl-amino)-pyrrolidin-1-yl]-4-(4-fluoro-2-methyl-phenyl)-pyridin-3-yl]-2-(3,5-bis-trifluoromethyl-phenyl)-N-methyl-isobutyramide] |  |  | 8.71 | 7.88
CN(C(=O)C(C)(C)c1cc(C(F)(F)F)cc(C(F)(F)F)c1)c1cnc(NCC(C)(C)O)cc1-c1ccccc1Cl [Example 75, 2-(3,5-Bis-trifluoromethyl-phenyl)-N-[4-(2-chloro-phenyl)-6-(2-hydroxy-2-methyl-propylamino)-pyridin-3-yl]-N-methyl-isobutyramide] |  |  | 8.77 | 7.91
CN(C(=O)C(C)(C)c1cc(C(F)(F)F)cc(C(F)(F)F)c1)c1cnc(N2CCCC(O)C2)cc1-c1ccccc1Cl (racemic) [Example 50, (RS)-2-(3,5-Bis-trifluoromethyl-phenyl)-N-[4′-(2-chloro-phenyl)-3-hydroxy-3,4,5,6-tetrahydro-2H-[1,2′]bipyridinyl-5′-yl]-N-methyl-isobutyramide] |  |  | 8.85 | 7.84
CN(C(=O)C(C)(C)c1cc(C(F)(F)F)cc(C(F)(F)F)c1)c1cnc(N2C[C@H](O)[C@@H](O)C2)cc1-c1ccccc1Cl [Example 182, (3S,4S)-2-(3,5-Bis-trifluoromethyl-phenyl)-N-[4-(2-chloro-phenyl)-6-(3,4-dihydroxy-pyrrolidin-1-yl)-pyridin-3-yl]-N-methyl-isobutyramide] |  |  | 9.03 | 7.49
Cc1cc(C)cc(C(C)(C)C(=O)N(C)c2cnc(N3CCC[C@H]3CO)cc2-c2ccccc2Cl)c1 [Example 9, (S)-N-[4-(2-Chloro-phenyl)-6-(2-hydroxymethyl-pyrrolidin-1-yl)-pyridin-3-yl]-2-(3,5-dimethyl-phenyl)-N-methyl-isobutyramide] |  |  | 8.19 | 8.44
Cc1cc(F)ccc1-c1cc(N2CCOC[C@H]2CO)ncc1N(C)C(=O)C(C)(C)c1cc(C(F)(F)F)cc(C(F)(F)F)c1 [Example 174, (R)-2-(3,5-Bis-trifluoromethyl-phenyl)-N-[4-(4-fluoro-2-methyl-phenyl)-6-(3-hydroxymethyl-morpholin-4-yl)-pyridin-3-yl]-N-methyl-isobutyramide] |  |  | 8.78 | 8.59
Cc1ccncc1-c1cc(N(C)CCO)ncc1N(C)C(=O)C(C)(C)c1cc(C(F)(F)F)cc(C(F)(F)F)c1 [Example 294, 2-(3,5-Bis-trifluoromethyl-phenyl)-N-{6′-[(2-hydroxy-ethyl)-methyl-amino]-4-methyl-[3,4′]bipyridinyl-3′-yl}-N-methyl-isobutyramide] | 5.13 | 4.27 |  | 
CN(C(=O)C(C)(C)c1cc(C(F)(F)F)cc(C(F)(F)F)c1)c1cnc(N2CC[C@H](O)[C@H]2CO)cc1-c1cc(F)ccc1F [Example 277, (2R,3S)-2-(3,5-Bis-trifluoromethyl-phenyl)-N-[4-(2,5-difluoro-phenyl)-6-(3-hydroxy-2-hydroxymethyl-pyrrolidin-1-yl)-pyridin-3-yl]-N-methyl-isobutyramide] | 1.48 | 2.45 |  | 
C[C@H](O)[C@H](CO)Nc1cc(-c2ccccc2Cl)c(N(C)C(=O)C(C)(C)c2cc(C(F)(F)F)cc(C(F)(F)F)c2)cn1 [Example 147, (1S,2S)-2-(3,5-Bis-trifluoromethyl-phenyl)-N-[4-(2-chloro-phenyl)-6-(2-hydroxy-1-hydroxymethyl-propylamino)-pyridin-3-yl]-N-methyl-isobutyramide] |  |  | 9.14 | 7.98
